Measurements as given in ChEMBL document CHEMBL1201862, “PubChem BioAssay data set” (2004).
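Exposure lasted 48 hours, with cells grown in 96-well plates and compounds tested at five concentrations. At the GI50, growth is halved.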 Activity calls are given as the source filed them. Cut-off read from the data, not from the text of the source: active = GI50 up to about 1.1 µM and inactive = higher.

How the values were obtained:
Assay in all cases: DTP human tumour cell line panel, 48 h
A498 = test system: A498
A549 = test system: A549
ACHN = test system: ACHN
CAKI-1 = test system: CAKI-1
CCRF-CEM = test system: CCRF-CEM
COLO 205 = test system: COLO 205
DU-145 = test system: DU-145
EKVX = test system: EKVX
HCC 2998 = test system: HCC 2998
HCT-116 = test system: HCT-116
HCT-15 = test system: HCT-15
HL-60 = test system: HL-60
HOP-62 = test system: HOP-62
HT-29 = test system: HT-29
Hs-578T = test system: Hs-578T
IGROV-1 = test system: IGROV-1
K562 = test system: K562
KM12 = test system: KM12
LOX IMVI = test system: LOX IMVI
M14 = test system: M14
MCF7 = test system: MCF7
MDA-MB-231 = test system: MDA-MB-231
MDA-MB-435 = test system: MDA-MB-435
MDA-N = test system: MDA-N
MOLT-4 = test system: MOLT-4
Malme-3M = test system: Malme-3M
NCI-H226 = test system: NCI-H226
NCI-H23 = test system: NCI-H23
NCI-H460 = test system: NCI-H460
NCI-H522 = test system: NCI-H522
NCI/ADR-RES = test system: NCI/ADR-RES
OVCAR-3 = test system: OVCAR-3
OVCAR-4 = test system: OVCAR-4
OVCAR-5 = test system: OVCAR-5
OVCAR-8 = test system: OVCAR-8
PC-3 = test system: PC-3
RPMI-8226 = test system: RPMI-8226
RXF 393 = test system: RXF 393
SF-268 = test system: SF-268
SF-295 = test system: SF-295
SF-539 = test system: SF-539
SK-MEL-28 = test system: SK-MEL-28
SK-MEL-2 = test system: SK-MEL-2
SK-MEL-5 = test system: SK-MEL-5
SK-OV-3 = test system: SK-OV-3
SN12C = test system: SN12C
SNB-19 = test system: SNB-19
SNB-75 = test system: SNB-75
SR = test system: SR
SW-620 = test system: SW-620
T47D = test system: T47D
TK-10 = test system: TK-10
U-251 = test system: U-251
UACC-62 = test system: UACC-62
UO-31 = test system: UO-31
786-0 = test system: 786-0
HOP-92 = test system: HOP-92
UACC-257 = test system: UACC-257

How did the GI50 (A498) turn out when CC(C)(CCCCC(C)(C)NC1=NCCO1)NC1=NCCO1 was run?
Its GI50 is > 10 µM (inactive).

What about the GI50 (A549) of the same compound?
The GI50 was > 10 µM (inactive).

What about the GI50 (ACHN) of the same compound?
The GI50 was > 10 µM (inactive).

What about the GI50 (CAKI-1) of the same compound?
Its GI50 is > 10 µM (inactive).

What about the GI50 (CCRF-CEM) of the same compound?
The GI50 was > 10 µM (inactive).

What about the GI50 (COLO 205) of the same compound?
The GI50 was > 10 µM (inactive).

What about the GI50 (DU-145) of the same compound?
Its GI50 is > 10 µM (inactive).

What about the GI50 (EKVX) of the same compound?
The GI50 was > 10 µM (inactive).

And the GI50 (HCC 2998)?
Its GI50 is > 10 µM (inactive).

And the GI50 (HCT-116)?
Its GI50 is > 10 µM (inactive).

What about the GI50 (HCT-15) of the same compound?
The GI50 was greater than 10 µM.

What about the GI50 (HL-60) of the same compound?
Its GI50 is > 10 µM (inactive).

What about the GI50 (HOP-62) of the same compound?
Its GI50 is > 10 µM (inactive).

What about the GI50 (HT-29) of the same compound?
Its GI50 is > 10 µM (inactive).

And the GI50 (Hs-578T)?
The GI50 was > 10 µM (inactive).

What about the GI50 (IGROV-1) of the same compound?
The GI50 was > 10 µM (inactive).

And the GI50 (K562)?
Its GI50 is > 10 µM (inactive).

And the GI50 (KM12)?
The GI50 was > 10 µM (inactive).

And the GI50 (LOX IMVI)?
Its GI50 is > 10 µM (inactive).

What about the GI50 (M14) of the same compound?
Its GI50 is > 10 µM (inactive).

And the GI50 (MCF7)?
The GI50 was > 10 µM (inactive).

What about the GI50 (MDA-MB-231) of the same compound?
The GI50 was > 10 µM (inactive).

What about the GI50 (MDA-MB-435) of the same compound?
Its GI50 is > 10 µM (inactive).

And the GI50 (MDA-N)?
The GI50 was > 10 µM (inactive).

And the GI50 (MOLT-4)?
The GI50 was > 10 µM (inactive).

What about the GI50 (Malme-3M) of the same compound?
Its GI50 is > 10 µM (inactive).

And the GI50 (NCI-H226)?
Its GI50 is > 10 µM (inactive).

What about the GI50 (NCI-H23) of the same compound?
The GI50 was > 10 µM (inactive).

And the GI50 (NCI-H460)?
The GI50 was > 10 µM (inactive).

And the GI50 (NCI-H522)?
Its GI50 is > 10 µM (inactive).

What about the GI50 (NCI/ADR-RES) of the same compound?
The GI50 was > 10 µM (inactive).

What about the GI50 (OVCAR-3) of the same compound?
Its GI50 is > 10 µM (inactive).

What about the GI50 (OVCAR-4) of the same compound?
Its GI50 is > 10 µM (inactive).

What about the GI50 (OVCAR-5) of the same compound?
The GI50 was > 10 µM (inactive).

What about the GI50 (OVCAR-8) of the same compound?
The GI50 was > 10 µM (inactive).

And the GI50 (PC-3)?
Its GI50 is > 10 µM (inactive).

And the GI50 (RPMI-8226)?
The GI50 was > 10 µM (inactive).

And the GI50 (RXF 393)?
Its GI50 is > 10 µM (inactive).

And the GI50 (SF-268)?
The GI50 was > 10 µM (inactive).

And the GI50 (SF-295)?
Its GI50 is > 10 µM (inactive).

What about the GI50 (SF-539) of the same compound?
The GI50 was > 10 µM (inactive).

And the GI50 (SK-MEL-28)?
Its GI50 is > 10 µM (inactive).

What about the GI50 (SK-MEL-2) of the same compound?
The GI50 was > 10 µM (inactive).

What about the GI50 (SK-MEL-5) of the same compound?
The GI50 was > 10 µM (inactive).

And the GI50 (SK-OV-3)?
The GI50 was > 10 µM (inactive).

And the GI50 (SN12C)?
The GI50 was > 10 µM (inactive).

What about the GI50 (SNB-19) of the same compound?
Its GI50 is > 10 µM (inactive).

And the GI50 (SNB-75)?
Its GI50 is > 10 µM (inactive).

What about the GI50 (SR) of the same compound?
Its GI50 is > 10 µM (inactive).

What about the GI50 (SW-620) of the same compound?
The GI50 was > 10 µM (inactive).

What about the GI50 (T47D) of the same compound?
Its GI50 is > 10 µM (inactive).

What about the GI50 (TK-10) of the same compound?
The GI50 was > 10 µM (inactive).

What about the GI50 (U-251) of the same compound?
Its GI50 is > 10 µM (inactive).

And the GI50 (UACC-62)?
Its GI50 is > 10 µM (inactive).

What about the GI50 (UO-31) of the same compound?
Its GI50 is > 10 µM (inactive).

For CCOC(=O)C(=O)/C(=C/n1c(=S)[nH]c2ccc([N+](=O)[O-])cc21)C(=O)OCC, which GI50 (786-0) is on record?
The GI50 was > 100 µM (inactive).

And the GI50 (A498)?
The GI50 was > 100 µM (inactive).

What about the GI50 (A549) of the same compound?
The GI50 was > 100 µM (inactive).

And the GI50 (ACHN)?
The GI50 was > 100 µM (inactive).

And the GI50 (CAKI-1)?
The GI50 was > 100 µM (inactive).

What about the GI50 (CCRF-CEM) of the same compound?
The GI50 was > 100 µM (inactive).

What about the GI50 (COLO 205) of the same compound?
Its GI50 is > 100 µM (inactive).

What about the GI50 (DU-145) of the same compound?
Its GI50 is > 100 µM (inactive).

And the GI50 (HCC 2998)?
The GI50 was > 100 µM (inactive).

And the GI50 (HCT-116)?
Its GI50 is > 100 µM (inactive).

And the GI50 (HL-60)?
Its GI50 is > 100 µM (inactive).

What about the GI50 (HOP-62) of the same compound?
Its GI50 is > 100 µM (inactive).

What about the GI50 (HOP-92) of the same compound?
The GI50 was > 100 µM (inactive).

What about the GI50 (HT-29) of the same compound?
The GI50 was > 100 µM (inactive).

What about the GI50 (Hs-578T) of the same compound?
The GI50 was > 100 µM (inactive).

What about the GI50 (K562) of the same compound?
The GI50 was > 100 µM (inactive).

What about the GI50 (KM12) of the same compound?
The GI50 was > 100 µM (inactive).

And the GI50 (LOX IMVI)?
Its GI50 is > 100 µM (inactive).

And the GI50 (M14)?
Its GI50 is > 100 µM (inactive).

And the GI50 (MCF7)?
Its GI50 is > 100 µM (inactive).

What about the GI50 (MDA-MB-231) of the same compound?
The GI50 was > 100 µM (inactive).

What about the GI50 (MDA-MB-435) of the same compound?
Its GI50 is > 100 µM (inactive).

And the GI50 (MDA-N)?
Its GI50 is > 100 µM (inactive).

And the GI50 (MOLT-4)?
The GI50 was > 100 µM (inactive).

What about the GI50 (NCI-H226) of the same compound?
The GI50 was 60 µM (inactive).

And the GI50 (NCI-H23)?
The GI50 was > 100 µM (inactive).

And the GI50 (NCI-H460)?
Its GI50 is > 100 µM (inactive).

What about the GI50 (NCI/ADR-RES) of the same compound?
Its GI50 is > 100 µM (inactive).

And the GI50 (OVCAR-3)?
Its GI50 is > 100 µM (inactive).

What about the GI50 (OVCAR-4) of the same compound?
Its GI50 is > 100 µM (inactive).

What about the GI50 (OVCAR-5) of the same compound?
The GI50 was > 100 µM (inactive).

And the GI50 (OVCAR-8)?
The GI50 was > 100 µM (inactive).

What about the GI50 (PC-3) of the same compound?
Its GI50 is > 100 µM (inactive).

And the GI50 (RPMI-8226)?
The GI50 was > 100 µM (inactive).

And the GI50 (RXF 393)?
Its GI50 is > 100 µM (inactive).

What about the GI50 (SF-268) of the same compound?
Its GI50 is > 100 µM (inactive).

What about the GI50 (SF-295) of the same compound?
The GI50 was > 100 µM (inactive).

And the GI50 (SF-539)?
The GI50 was > 100 µM (inactive).

What about the GI50 (SK-MEL-28) of the same compound?
The GI50 was > 100 µM (inactive).

And the GI50 (SK-MEL-2)?
Its GI50 is > 100 µM (inactive).

And the GI50 (SK-MEL-5)?
Its GI50 is 65.5 µM (inactive).

And the GI50 (SK-OV-3)?
The GI50 was > 100 µM (inactive).

What about the GI50 (SN12C) of the same compound?
Its GI50 is > 100 µM (inactive).

What about the GI50 (SNB-19) of the same compound?
Its GI50 is > 100 µM (inactive).

And the GI50 (SNB-75)?
Its GI50 is 90.4 µM (inactive).

What about the GI50 (SR) of the same compound?
Its GI50 is > 100 µM (inactive).

What about the GI50 (SW-620) of the same compound?
The GI50 was > 100 µM (inactive).

And the GI50 (T47D)?
Its GI50 is > 100 µM (inactive).

And the GI50 (TK-10)?
Its GI50 is > 100 µM (inactive).

And the GI50 (U-251)?
The GI50 was > 100 µM (inactive).

What about the GI50 (UACC-257) of the same compound?
Its GI50 is > 100 µM (inactive).

And the GI50 (UACC-62)?
Its GI50 is > 100 µM (inactive).

What about the GI50 (UO-31) of the same compound?
The GI50 was > 100 µM (inactive).
